# US20170197985A1, “SODIUM (2R,5S,13AR)-7,9-DIOXO-10-((2,4,6-TRIFLUOROBENZYL)CARBAMOYL)-2,3,4,5,7,9,13,13A-OCTAHYDRO-2,5-METHANOPYRIDO[1',2':4,5]PYRAZINO[2,1-B][1,3]OXAZEPIN-8-OLATE” (Gilead Sciences, Inc., priority 2014, published 2017)
# Legend:
# [1] = Bioavailability after a single oral tablet in beagle dogs (plasma LC/MS/MS, non-compartmental PK); assay type: in vivo; conditions: dog, male beagle dogs, fasted, pentagastrin pre-treated, single 25 mg strength tablet (dry granulation, 30% active); for bioavailability: read-out: % F (oral bioavailability)
# From the text: The bioavailability of sodium (2R,5S,13aR)-7,9-dioxo-10-((2,4,6-trifluorobenzyl)carbamoyl)-2,3,4,5,7,9,13,13a-octahydro-2,5-methanopyrido[1′,2′:4,5]pyrazino[2,1-b][1,3]oxazepin-8-olate (Formula II) Form I was compared to the bioavailability of (2R,5S,13aR)-8-hydroxy-7,9-dioxo-N-(2,4,6-trifluorobenzyl)-2,3,4,5,7,9,13,13a-octahydro-2,5-methanopyrido[1′,2′:4,5]pyrazino[2,1-b][1,3]oxazepine-10-carboxamide (Formula I) Form III.
# Each dosing group consisted of 6 male, non-naïve purebred beagle dogs. At dosing, the animals weighed between 10 to 13 kg. The animals were fasted overnight prior to dose administration and up to 4 hr after dosing. Each subject was pre-treated with pentagastrin (6 μg/kg) and dosed 30 minutes later with a single 25 mg strength tablet of Formula II Form I or Formula I Form III. Each subject was given 10 mL of water to aid in swallowing.
# Serial venous blood samples (approximately 1 mL each) were taken from each animal at 0, 0.250, 0.483, 0.583, 0.750, 1.00, 1.50, 2.00, 4.00, 8.00, 12.0, and 24.0 hours after dosing. The blood samples were collected into Vacutainer™ tubes containing EDTA-K2 as the anti-coagulant and were immediately placed on wet ice pending centrifugation for plasma. An LC/MS/MS method was used to measure the concentration of the test compound in plasma. An aliquot of 100 μL of each plasma sample was added to a clean 96 well plate, and 400 μL of cold acetonitrile/internal standard solution (ACN)/(ISTD) was added. After protein precipitation, an aliquot of 110 μL of the supernatant was transferred to a clean 96-well plate and diluted with 300 μL of water. An aliquot of 25 μL of the above solution was injected into a TSQ Quantum Ultra LC/MS/MS system utilizing a Hypersil Gold C18 HPLC column (50×3.0 mm, 5 μm; Thermo-Hypersil Part #25105-053030). An Agilent 1200 series binary pump (P/N G1312A Bin Pump) was used for elution and separation, and an HTS Pal autosampler (LEAP Technologies, Carrboro, N.C.) was used for sample injection. A TSQ Quantum Ultra triple quadrupole mass spectrometer was utilized in selective reaction monitoring mode (Thermo Finnigan, San Jose, Calif.). Liquid chromatography was performed using two mobile phases: mobile phase A contained 1% acetonitrile in 2.5 mM ammonium formate aqueous solution with pH of 3.0, and mobile phase B contained 90% acetonitrile in 10 mM ammonium formate with pH of 4.6. Non-compartmental pharmacokinetic analysis was performed on the plasma concentration-time data. The resulting data are shown in Table 3: F (%) refers to oral bioavailability; AUC refers to area under the curve and is a measure of total plasma exposure of the indicated compound; Cmax refers to the peak plasma concentration of the compound after administration.
# HIV = conditions: as discussed in co-pending U.S. Ser. No. 14/133,855 and PCT US2013/076367; cited from earlier work
# [2] = Stability on storage under accelerated conditions (% AN, % LS); assay type: physicochemical
# Experimental: The stability of sodium (2R,5S,13aR)-7,9-dioxo-10-((2,4,6-trifluorobenzyl)carbamoyl)-2,3,4,5,7,9,13,13a-octahydro-2,5-methanopyrido[1′,2′:4,5]pyrazino[2,1-b][1,3]oxazepin-8-olate Form I was tested. […] In Table 5, AN refers to area normalization and is the relative peak area of the active with respect to other impurities and components contained in the sample. LS refers to labile strength and is the amount of active present relative to the theoretical amount.
smiles,measurement,setting,value
"O=C(NCc1c(F)cc(F)cc1F)c1cn2c(c(O)c1=O)C(=O)N1[C@H]3CC[C@H](C3)O[C@@H]1C2 [Formula I Form III, (2R,5S,13aR)-8-hydroxy-7,9-dioxo-N-(2,4,6-trifluorobenzyl)-2,3,4,5,7,9,13,13a-octahydro-2,5-methanopyrido[1′,2′:4,5]pyrazino[2,1-b][1,3]oxazepine-10-carboxamide]",AUC(0-t),[1],27 ± 13 µM·h
same,Cmax,[1],6 ± 2 µM
same,bioavailability,[1],10 ± 6%
"O=C(NCc1c(F)cc(F)cc1F)c1cn2c(c(O)c1=O)C(=O)N1[C@H]3CC[C@H](C3)O[C@@H]1C2 [Formula I, (2R,5S,13aR)-8-hydroxy-7,9-dioxo-N-(2,4,6-trifluorobenzyl)-2,3,4,5,7,9,13,13a-octahydro-2,5-methanopyrido[1′,2′:4,5]pyrazino[2,1-b][1,3]oxazepine-10-carboxamide]",anti-viral activity (in words),HIV,demonstrates anti-viral activity
"O=C(NCc1c(F)cc(F)cc1F)c1cn2c(c([O-])c1=O)C(=O)N1[C@H]3CC[C@H](C3)O[C@@H]1C2.[Na+] [Formula II Form I, sodium (2R,5S,13aR)-7,9-dioxo-10-((2,4,6-trifluorobenzyl)carbamoyl)-2,3,4,5,7,9,13,13a-octahydro-2,5-methanopyrido[1′,2′:4,5]pyrazino[2,1-b][1,3]oxazepin-8-olate]",% AN (area normalization),"[2]; 25° C./60% RH (open), 1 week",95.0 ± 0.2%
same,% LS (labile strength),"[2]; 25° C./60% RH (open), 1 week",104.8 ± 0.1%
same,% AN (area normalization),"[2]; 25° C./60% RH (open), 2 weeks",94.4 ± 0.1%
same,% LS (labile strength),"[2]; 25° C./60% RH (open), 2 weeks",101.6 ± 0.1%
same,% AN (area normalization),"[2]; 25° C./60% RH (open), 4 weeks",94.4 ± 0.0%
same,% LS (labile strength),"[2]; 25° C./60% RH (open), 4 weeks",103.0 ± 0.8%
same,% AN (area normalization),"[2]; 40° C. (closed), 1 week",95.2 ± 0.3%
same,% LS (labile strength),"[2]; 40° C. (closed), 1 week",108.0 ± 0.2%
same,% AN (area normalization),"[2]; 40° C. (closed), 2 weeks",94.4 ± 0.1%
same,% LS (labile strength),"[2]; 40° C. (closed), 2 weeks",102.4 ± 0.1%
same,% AN (area normalization),"[2]; 40° C. (closed), 4 weeks",94.4 ± 0.0%
same,% LS (labile strength),"[2]; 40° C. (closed), 4 weeks",97.0 ± 0.0%
same,% AN (area normalization),"[2]; 40° C./75% RH (open), 1 week",94.9 ± 0.1%
same,% LS (labile strength),"[2]; 40° C./75% RH (open), 1 week",103.3 ± 6.9%
same,% AN (area normalization),"[2]; 40° C./75% RH (open), 2 weeks",94.4 ± 0.0%
same,% LS (labile strength),"[2]; 40° C./75% RH (open), 2 weeks",108.5 ± 0.4%
same,% AN (area normalization),"[2]; 40° C./75% RH (open), 4 weeks",94.4 ± 0.0%
same,% LS (labile strength),"[2]; 40° C./75% RH (open), 4 weeks",102.9 ± 0.1%
same,% AN (area normalization),"[2]; Starting material, 0 weeks",94.4 ± 0.1%
same,% LS (labile strength),"[2]; Starting material, 0 weeks",99.8 ± 0.1%
same,Stability (in words),[2]; after four weeks of storage under accelerated conditions,stable
same,AUC(0-t),[1],71 ± 16 µM·h
same,Cmax,[1],13 ± 1 µM
same,bioavailability,[1],28 ± 7%
